pIC50: −log10 of the molar value.
System: 429239-143-T-J1-PDC complex spheroid viability
Assay: Anticancer human tumor 429239-143-T-J1-PDC patient-derived small cell lung carcinoma cell line growth inhibition [POLQ]
Conditions: for pIC50: curve of first compound; for viability, T/C: stronger effect = lower value
Procedure, shortened: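 Three-cell-type spheroids modelling solid tumor plus stroma served as the readout system; POL inhibitors were tested individually and in combination, concentration ranges set by clinical Cmax where known.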

[1] = second compound 0.0316 µM, first compound 0.0316 µM
[2] = second compound 0.0316 µM, first compound 0.1 µM
[3] = second compound 0.0316 µM, first compound 0.316 µM
[4] = second compound 0.0316 µM, first compound 1 µM
[5] = second compound 0.0316 µM, first compound 3.16 µM
[6] = second compound 0.0316 µM, first compound 10 µM
[7] = second compound 0.1 µM, first compound 0.0316 µM
[8] = second compound 0.1 µM, first compound 0.1 µM
[9] = second compound 0.1 µM, first compound 0.316 µM
[10] = second compound 0.1 µM, first compound 1 µM
[11] = second compound 0.1 µM, first compound 3.16 µM
[12] = second compound 0.1 µM, first compound 10 µM
[13] = second compound 0.316 µM, first compound 0.0316 µM
[14] = second compound 0.316 µM, first compound 0.1 µM
[15] = second compound 0.316 µM, first compound 0.316 µM
[16] = second compound 0.316 µM, first compound 1 µM
[17] = second compound 0.316 µM, first compound 3.16 µM
[18] = second compound 0.316 µM, first compound 10 µM
[19] = second compound 1 µM, first compound 0.0316 µM
[20] = second compound 1 µM, first compound 0.1 µM
[21] = second compound 1 µM, first compound 0.316 µM
[22] = second compound 1 µM, first compound 1 µM
[23] = second compound 1 µM, first compound 3.16 µM
[24] = second compound 1 µM, first compound 10 µM
[25] = second compound 3.16 µM, first compound 0.0316 µM
[26] = second compound 3.16 µM, first compound 0.1 µM
[27] = second compound 3.16 µM, first compound 0.316 µM
[28] = second compound 3.16 µM, first compound 1 µM
[29] = second compound 3.16 µM, first compound 3.16 µM
[30] = second compound 3.16 µM, first compound 10 µM
[31] = second compound 10 µM, first compound 0.0316 µM
[32] = second compound 10 µM, first compound 0.1 µM
[33] = second compound 10 µM, first compound 0.316 µM
[34] = second compound 10 µM, first compound 1 µM
[35] = second compound 10 µM, first compound 3.16 µM
[36] = second compound 10 µM, first compound 10 µM
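Also: luminescence signal used as surrogate measure of viable cells; spheroids exposed to compounds for seven days before readout.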
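For viability, T/C in this document: 100% = DMSO vehicle control viability as luminescence relative to vehicle.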

COc1cccc2c1C(=O)c1c(O)c3c(c(O)c1C2=O)CC(O)(C(=O)CO)CC3OC1CC(N)C(O)C(C)O1 (centres undefined) + Cc1cccc(N(C)C(=O)C2C(O)CCN2c2nc(C)cc(C(F)(F)F)c2C#N)c1
pIC50 (second compound 0.0316 µM): 7.25 | pIC50 (second compound 0.1 µM): 7.24 | pIC50 (second compound 0.316 µM): 7.32 | pIC50 (second compound 1 µM): 7.36 | pIC50 (second compound 3.16 µM): 7.33 | pIC50 (second compound 10 µM): 7.34 | viability, T/C [1]: 83.3% | viability, T/C [2]: 15.2% | viability, T/C [3]: 12.4% | viability, T/C [4]: 0.22% | viability, T/C [5]: 0.12% | viability, T/C [6]: 0.13% | viability, T/C [7]: 84.9% | viability, T/C [8]: 15.6% | viability, T/C [9]: 14.7% | viability, T/C [10]: 0.15% | viability, T/C [11]: 0.11% | viability, T/C [12]: 0.09% | viability, T/C [13]: 69.1% | viability, T/C [14]: 14.3% | viability, T/C [15]: 11.2% | viability, T/C [16]: 0.17% | viability, T/C [17]: 0.16% | viability, T/C [18]: 0.11% | viability, T/C [19]: 62.7% | viability, T/C [20]: 16% | viability, T/C [21]: 14.7% | viability, T/C [22]: 0.15% | viability, T/C [23]: 0.13% | viability, T/C [24]: 0.09% | viability, T/C [25]: 68.1% | viability, T/C [26]: 13.6% | viability, T/C [27]: 12.1% | viability, T/C [28]: 0.14% | viability, T/C [29]: 0.25% | viability, T/C [30]: 0.15% | viability, T/C [31]: 63.8% | viability, T/C [32]: 17.8% | viability, T/C [33]: 14.5% | viability, T/C [34]: 0.17% | viability, T/C [35]: 0.25% | viability, T/C [36]: 0.2%

CCc1cc2c(N3CCc4c(cc(Cn5ccnc5)cc4-c4cn(C)nc4C(F)(F)F)C3=O)ccnc2c(OC)n1 + Cc1cccc(N(C)C(=O)C2C(O)CCN2c2nc(C)cc(C(F)(F)F)c2C#N)c1
pIC50 (second compound 0.0316 µM): < 5.00 | pIC50 (second compound 0.1 µM): < 5.00 | pIC50 (second compound 0.316 µM): < 5.00 | pIC50 (second compound 1 µM): < 5.00 | pIC50 (second compound 3.16 µM): < 5.00 | pIC50 (second compound 10 µM): 5.07 | viability, T/C [1]: 117% | viability, T/C [2]: 102% | viability, T/C [3]: 98.2% | viability, T/C [4]: 88.4% | viability, T/C [5]: 85.3% | viability, T/C [6]: 49.8% | viability, T/C [7]: 103% | viability, T/C [8]: 113% | viability, T/C [9]: 93.2% | viability, T/C [10]: 89.1% | viability, T/C [11]: 85.7% | viability, T/C [12]: 57.6% | viability, T/C [13]: 116% | viability, T/C [14]: 97.8% | viability, T/C [15]: 96.8% | viability, T/C [16]: 86% | viability, T/C [17]: 78.3% | viability, T/C [18]: 56.6% | viability, T/C [19]: 107% | viability, T/C [20]: 95.4% | viability, T/C [21]: 89.2% | viability, T/C [22]: 87.8% | viability, T/C [23]: 86.7% | viability, T/C [24]: 56.6% | viability, T/C [25]: 104% | viability, T/C [26]: 108% | viability, T/C [27]: 96.5% | viability, T/C [28]: 95.6% | viability, T/C [29]: 77.7% | viability, T/C [30]: 50.8% | viability, T/C [31]: 111% | viability, T/C [32]: 91.8% | viability, T/C [33]: 104% | viability, T/C [34]: 96.5% | viability, T/C [35]: 72.2% | viability, T/C [36]: 46.1%
